In PubChem BioAssay (NCI):
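Cultured in 96-well plates, cells were exposed to test compound for 48 hours across five concentrations. GI50 = concentration required for 50% inhibition of growth. TGI marks complete inhibition of growth.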

Columns and labels:
Assay in all cases: growth of human tumour cells (NCI), 48 h
[1] = test system: HCT-116 colon
[2] = test system: OVCAR-3 ovarian
[3] = test system: SK-MEL-5 melanoma
[4] = test system: NCI-H23 lung
[5] = test system: HCC-2998 colon
[6] = test system: EKVX NSCLC
[7] = test system: PC-3 prostate
[8] = test system: SNB-75 CNS
[9] = test system: SF-295 CNS
[10] = test system: U251 CNS

SMILES | TGI [1] [µM] | TGI [2] [µM] | TGI [3] [µM] | TGI [4] [µM] | TGI [5] [µM] | TGI [6] [µM] | TGI [7] [µM] | TGI [8] [µM] | TGI [9] [µM] | TGI [10] [µM] | GI50 [1] [µM] | GI50 [8] [µM]
C(=Nc1ccc(-c2nc3ccccc3[nH]2)cc1)c1ccc[nH]1 | > 100 | > 100 | > 100 | > 100 | > 100 | > 100 | > 100 | > 100 | – | – | – | –
O=c1[nH]c(=O)n(C2CC(O)C(CO)O2)cc1NN=NCCCc1ccccc1 (centres undefined) | > 100 | > 100 | > 100 | > 100 | > 100 | > 100 | > 100 | – | > 100 | – | – | –
C[n+]1c(-c2ccc(/C=N/Nc3ccnc(N/N=C/c4ccc(-c5cn6ccsc6[n+]5C)cc4)n3)cc2)cn2ccsc21 | – | > 100 | 54.5 | > 100 | > 100 | 45.7 | 79.9 | 68.3 | – | > 100 | – | –
C=CCN1C(=O)/C(=C/c2ccco2)N=C1SC1OC(COC(C)=O)C(OC(C)=O)C(OC(C)=O)C1OC(C)=O (centres undefined) | – | > 100 | > 100 | > 100 | > 100 | > 100 | > 100 | > 100 | > 100 | > 100 | – | –
COc1ccc(/C=C2\CCS(=O)(=O)c3ccccc3C2=O)cc1OC | > 100 | > 100 | – | > 100 | 44.1 | > 100 | > 100 | 98.4 | > 100 | > 100 | – | –
COP(=O)(OC)C(NC(=O)C(F)(F)F)(c1ccccc1)C(F)(F)F (centres undefined) | > 100 | > 100 | > 100 | > 100 | > 100 | > 100 | – | > 100 | > 100 | > 100 | – | –
CC1(C)O[C@@H](CCl)C[C@H](C#N)O1 | > 100 | > 100 | > 100 | > 100 | > 100 | > 100 | – | > 100 | > 100 | > 100 | – | –
CCCC(C)n1c(C)nc2c1C(=O)c1ccccc1C2=O (centres undefined) | 19.5 | 85.1 | 30 | 36.2 | > 100 | > 100 | – | > 100 | > 100 | > 100 | – | –
CC1(C)C(CCO)CC1n1cc(I)c(=O)[nH]c1=O (centres undefined) | > 100 | > 100 | > 100 | – | > 100 | > 100 | > 100 | > 100 | > 100 | > 100 | – | –
O=C(CCC(=O)CC(O)(C(F)(F)F)C(F)(F)F)CC(O)(C(F)(F)F)C(F)(F)F | > 100 | – | > 100 | 95.8 | > 100 | > 100 | – | > 100 | > 100 | > 100 | – | –
COc1cc(C2c3cc4c(cc3OC(Nc3ccccc3)C2C)OCO4)cc(OC)c1O (centres undefined) | 16 | 24.6 | 10.7 | 33.5 | 14.6 | – | 13.4 | 7.35 | 15.6 | 14.2 | – | –
Cc1c(-c2ccccc2)nn2cc(-c3ccccc3)nnc12 | > 100 | > 100 | 41.4 | > 100 | 34 | – | > 100 | > 100 | > 100 | 85.7 | – | –
O=C1C=C2SC3C[C@@]24CC1[N+]1=c2c4c(c(O)c4c2=C(C=N4)CC1)N3 | 3.35 | 2.51 | 3.44 | – | 6.78 | 4.8 | – | 12.2 | 11.6 | 3.33 | – | –
CSC1C(=O)Nc2ccc3ccccc3c21 (centres undefined) | 29.9 | – | 57.4 | > 100 | > 100 | 38.2 | 35 | 70.5 | > 100 | 33.6 | – | –
COc1cc([C@@H]2c3cc4c(cc3[C@@H](Nc3ccccc3C(=O)c3ccccc3)[C@H]3COC(=O)[C@H]23)OCO4)cc(OC)c1OC | > 100 | > 100 | 2.93 | > 100 | > 28.7 | > 100 | > 78.7 | – | > 100 | 0.979 | – | –
O=S(OC12CC3CC(CC(C3)C1)C2)c1cc(Cl)cc(Cl)c1OCc1ccccc1 (centres undefined) | > 100 | > 100 | – | > 100 | > 100 | > 100 | – | > 100 | – | > 100 | – | –
CCOC(=O)c1c(Br)c(-c2ccc(OC)cc2)c(Br)n1C | 62.6 | 67.7 | 22.4 | > 100 | – | 74.8 | > 100 | > 100 | 56.1 | > 100 | 16 | 63.4
CCOC(=O)c1cc(I)c(-c2cc(C)no2)n1C | > 100 | > 100 | > 100 | > 100 | – | > 100 | > 100 | > 100 | > 100 | > 100 | – | –
CCOC(=O)C(CC(C)C)NC(=O)CSc1nnc(COc2ccc(Cl)cc2)n1-c1ccccc1 (centres undefined) | 28 | 24.7 | 32.6 | 29.5 | 27.4 | – | 30.8 | 32 | – | 33.4 | – | –
NNc1nncc2[nH]cnc12 | > 100 | > 100 | > 100 | > 100 | – | > 100 | > 100 | > 100 | > 100 | > 100 | – | –
O=C1Nc2ccccc2Cn2c1cc1oc(-c3ccccc3)cc12 | – | > 100 | > 100 | > 100 | > 100 | > 100 | > 100 | 64.2 | 63.3 | 36.3 | – | –
O=C1c2ccccc2C(=O)c2c(O)c(NCCCNCCO)cc(O)c21 | – | 26.6 | – | 24.6 | 17 | 28.3 | – | 26.8 | 23.1 | 21.1 | – | –
COc1cc(C2=NNC(=O)c3ccccc3N2c2nc(-c3cccs3)nc3ccc(Br)cc23)cc(OC)c1OC | 26.9 | 27.8 | 50.4 | 53.4 | – | 86.4 | > 100 | > 100 | 31.7 | 92.9 | – | –
